Results from ChEMBL document CHEMBL5150068, “Structure-Based Design of Tropane Derivatives as a Novel Series of CCR5 Antagonists with Broad-Spectrum Anti-HIV-1 Activities and Improved Oral Bioavailability” (J Med Chem, 2022).

Legend:
[1] = biological target: C-C chemokine receptor type 5 (Homo sapiens, UniProt P51681); assay: Antagonist activity at CCR5 (unknown origin) expressed in HEK293 cells co-expressing Galpha16 assessed as intracellular calcium change incubated for 15 mins by Fluo-4 AM calcium flux assay; type: functional, cell-based
Chain of C-C chemokine receptor type 5 (P51681 whole entry): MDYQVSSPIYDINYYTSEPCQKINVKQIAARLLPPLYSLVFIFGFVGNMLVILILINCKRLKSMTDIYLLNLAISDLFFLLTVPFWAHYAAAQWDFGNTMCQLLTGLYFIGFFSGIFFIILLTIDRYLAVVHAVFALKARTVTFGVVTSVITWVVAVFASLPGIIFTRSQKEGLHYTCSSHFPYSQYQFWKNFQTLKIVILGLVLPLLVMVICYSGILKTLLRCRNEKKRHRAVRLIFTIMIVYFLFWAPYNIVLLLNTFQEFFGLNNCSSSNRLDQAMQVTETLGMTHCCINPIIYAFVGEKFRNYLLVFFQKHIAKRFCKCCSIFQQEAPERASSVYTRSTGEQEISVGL

[2] = Cytotoxicity against human TZM-bl cells incubated for 48 hrs by MTT assay; type: toxicity, cell-based
[3] = system: Human immunodeficiency virus 1; assay: Antiviral activity against HIV-1 YU-2 infected in human TZM-bl cells measured after 48 hrs incubation by luciferase based analysis; type: functional, organism-based; conditions: Human immunodeficiency virus 1, YU-2, TZM-bl, 48 h
in vitro [4] = conditions: human, TZM-bl cells
Description: Therapeutic index, ratio of CC50 for human TZM-bl cells to EC50 for antiviral activity against HIV-1 Ba-L

[5] = system: Human immunodeficiency virus 1; assay: Antiviral activity against HIV-1 Ba-L infected in human TZM-bl cells measured after 48 hrs incubation by luciferase based analysis; type: functional, organism-based; conditions: Human immunodeficiency virus 1, Ba-L
[6] = system: Human immunodeficiency virus 1; assay: Antiviral activity against HIV-1 SF162 infected in human TZM-bl cells measured after 48 hrs incubation by luciferase based analysis; type: functional, organism-based; conditions: Human immunodeficiency virus 1, SF162, TZM-bl
[7] = system: Human immunodeficiency virus 1; assay: Antiviral activity against HIV-1 YU-2 (G140S/Q148H) infected in human TZM-bl cells measured after 48 hrs incubation by luciferase based analysis; type: functional, organism-based; conditions: Human immunodeficiency virus 1, YU-2 (G140S/Q148H)
[8] = Cytotoxicity against human PM1 cells incubated for 48 hrs by MTT assay; type: toxicity, cell-based
[9] = Cytotoxicity against human HOS-CD4-CCR5 cells incubated for 48 hrs by MTT assay; type: toxicity, cell-based
[10] = Cytotoxicity against human PBMC cells incubated for 48 hrs by MTT assay; type: toxicity, cell-based
[11] = system: Human immunodeficiency virus 1; assay: Antiviral activity against HIV-1 Ba-L infected in human HOS-CD4-CCR5 cells measured after 48 hrs incubation by ELISA based p24 antigen assay; type: functional, organism-based; conditions: Human immunodeficiency virus 1, Ba-L
[12] = system: Human immunodeficiency virus 1; assay: Antiviral activity against HIV-1 Ba-L infected in human PM1 cells measured after 48 hrs incubation by ELISA based p24 antigen assay; type: functional, organism-based; conditions: Human immunodeficiency virus 1, Ba-L, PM1, 48 h
[13] = system: Human immunodeficiency virus 1; assay: Antiviral activity against HIV-1 IIIB infected in human TZM-bl cells measured after 48 hrs incubation by luciferase based analysis; type: functional, organism-based; conditions: Human immunodeficiency virus 1, IIIB
[14] = system: Human immunodeficiency virus 1; assay: Antiviral activity against HIV-1 KM018 clinical isolate infected in human PBMC measured after 48 hrs incubation by luciferase based analysis; type: functional, organism-based; conditions: Human immunodeficiency virus 1, KM018, PBMC
[15] = system: Human immunodeficiency virus 1; assay: Antiviral activity against HIV-1 KIZ001 clinical isolate infected in human PBMC measured after 48 hrs incubation by luciferase based analysis; type: functional, organism-based; conditions: Human immunodeficiency virus 1, KIZ001, PBMC
[16] = system: Human immunodeficiency virus 1; assay: Antiviral activity against HIV-1 KIZ006 clinical isolate infected in human PBMC measured after 48 hrs incubation by luciferase based analysis; type: functional, organism-based; conditions: Human immunodeficiency virus 1, KIZ006, PBMC
[17] = Cmax in Sprague-Dawley rat at 10 mg/kg, po measured upto 24 hrs; type: ADME, organism-based; set-up: time < 24 hrs, dose 10 mg/kg, route po; conditions: in vivo
[18] = Tmax in Sprague-Dawley rat at 10 mg/kg, po measured upto 24 hrs; type: ADME, organism-based; conditions: in vivo
[19] = Half life in Sprague-Dawley rat at 10 mg/kg, po measured upto 24 hrs; type: ADME, organism-based; conditions: in vivo
[20] = AUC (0 to last) in Sprague-Dawley rat at 10 mg/kg, po measured upto 24 hrs; type: ADME, organism-based; set-up: dose 10 mg/kg, time < 24 hrs, route po; conditions: in vivo
[21] = AUC (0 to infinitive) in Sprague-Dawley rat at 10 mg/kg, po measured upto 24 hrs; type: ADME, organism-based; set-up: dose 10 mg/kg, time < 24 hrs, route po; conditions: Sprague-Dawley, in vivo
[22] = MRT in Sprague-Dawley rat at 10 mg/kg, po measured upto 24 hrs; type: ADME, organism-based; conditions: in vivo
[23] = Oral bioavailability in Sprague-Dawley rat at 10 mg/kg measured upto 24 hrs; type: ADME, organism-based; conditions: Sprague-Dawley, in vivo
[24] = Half life in Sprague-Dawley rat at 2 mg/kg, iv measured upto 24 hrs; type: ADME, organism-based; conditions: in vivo, iv, 2 mg/kg, 24 h
[25] = AUC (0 to last) in Sprague-Dawley rat at 2 mg/kg, iv measured upto 24 hrs; type: ADME, organism-based; set-up: dose 2 mg/kg, time < 24 hrs, route iv; conditions: Sprague-Dawley, in vivo
[26] = AUC (0 to infinitive) in Sprague-Dawley rat at 2 mg/kg, iv measured upto 24 hrs; type: ADME, organism-based; set-up: dose 2 mg/kg, time < 24 hrs, route iv; conditions: Sprague-Dawley, in vivo
[27] = MRT in Sprague-Dawley rat at 2 mg/kg, iv measured upto 24 hrs; type: ADME, organism-based; conditions: in vivo, iv, 2 mg/kg, 24 h
Cytochrome P450 1A2 = biological target: T1, Cytochrome P450 1A2 (Homo sapiens, UniProt P05177); assay: Inhibition of CYP1A2 (unknown origin); type: ADME
T1 sequence (P05177 whole entry): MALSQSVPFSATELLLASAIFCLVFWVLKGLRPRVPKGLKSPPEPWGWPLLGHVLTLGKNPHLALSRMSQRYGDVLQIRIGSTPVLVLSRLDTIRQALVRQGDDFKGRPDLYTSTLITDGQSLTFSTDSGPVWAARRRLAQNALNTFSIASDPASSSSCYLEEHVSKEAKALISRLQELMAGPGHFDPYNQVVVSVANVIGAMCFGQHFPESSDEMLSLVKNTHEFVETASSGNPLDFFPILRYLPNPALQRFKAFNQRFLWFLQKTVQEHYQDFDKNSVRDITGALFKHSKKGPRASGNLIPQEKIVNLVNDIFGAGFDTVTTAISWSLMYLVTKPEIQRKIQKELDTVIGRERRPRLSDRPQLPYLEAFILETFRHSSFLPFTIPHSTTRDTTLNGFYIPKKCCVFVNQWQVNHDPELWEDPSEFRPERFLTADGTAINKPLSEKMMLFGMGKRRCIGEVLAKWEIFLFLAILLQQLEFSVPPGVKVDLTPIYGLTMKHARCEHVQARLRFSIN

Cytochrome P450 2C9 = Cytochrome P450 2C9 (Homo sapiens, UniProt P11712); assay: Inhibition of CYP2C9 (unknown origin); type: ADME
Chain of Cytochrome P450 2C9 (P11712 whole entry): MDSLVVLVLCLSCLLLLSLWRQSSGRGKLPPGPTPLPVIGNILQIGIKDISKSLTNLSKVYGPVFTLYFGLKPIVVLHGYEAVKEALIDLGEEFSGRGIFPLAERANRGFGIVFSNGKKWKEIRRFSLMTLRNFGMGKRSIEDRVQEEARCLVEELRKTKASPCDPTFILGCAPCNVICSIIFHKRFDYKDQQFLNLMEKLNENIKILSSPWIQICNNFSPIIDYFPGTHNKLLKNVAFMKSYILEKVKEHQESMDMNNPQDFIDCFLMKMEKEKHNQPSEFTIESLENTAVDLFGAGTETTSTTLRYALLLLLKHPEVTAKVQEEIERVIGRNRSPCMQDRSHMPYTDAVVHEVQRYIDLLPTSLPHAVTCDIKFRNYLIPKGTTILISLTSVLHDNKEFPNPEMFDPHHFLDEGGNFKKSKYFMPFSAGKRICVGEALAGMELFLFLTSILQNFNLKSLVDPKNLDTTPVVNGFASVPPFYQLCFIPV

Cytochrome P450 2C19 = Cytochrome P450 2C19 (Homo sapiens, UniProt P33261); assay: Inhibition of CYP2C19 (unknown origin); type: ADME
Chain of Cytochrome P450 2C19 (P33261 whole entry): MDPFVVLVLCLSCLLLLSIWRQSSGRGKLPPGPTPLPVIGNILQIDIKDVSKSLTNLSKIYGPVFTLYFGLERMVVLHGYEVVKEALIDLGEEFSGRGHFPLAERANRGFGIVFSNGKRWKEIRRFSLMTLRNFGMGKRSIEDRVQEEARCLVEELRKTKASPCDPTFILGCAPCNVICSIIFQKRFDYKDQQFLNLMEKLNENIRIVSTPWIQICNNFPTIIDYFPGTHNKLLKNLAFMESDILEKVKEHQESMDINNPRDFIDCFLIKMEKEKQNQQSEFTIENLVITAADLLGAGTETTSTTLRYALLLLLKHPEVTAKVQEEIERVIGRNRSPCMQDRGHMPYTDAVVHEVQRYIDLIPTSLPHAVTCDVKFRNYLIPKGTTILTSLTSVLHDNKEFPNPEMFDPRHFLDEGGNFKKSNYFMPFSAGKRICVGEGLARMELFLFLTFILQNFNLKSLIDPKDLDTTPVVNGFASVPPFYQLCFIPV

Cytochrome P450 2D6 = Cytochrome P450 2D6 (Homo sapiens, UniProt P10635); assay: Inhibition of CYP2D6 (unknown origin); type: ADME
Chain of Cytochrome P450 2D6 (P10635 whole entry): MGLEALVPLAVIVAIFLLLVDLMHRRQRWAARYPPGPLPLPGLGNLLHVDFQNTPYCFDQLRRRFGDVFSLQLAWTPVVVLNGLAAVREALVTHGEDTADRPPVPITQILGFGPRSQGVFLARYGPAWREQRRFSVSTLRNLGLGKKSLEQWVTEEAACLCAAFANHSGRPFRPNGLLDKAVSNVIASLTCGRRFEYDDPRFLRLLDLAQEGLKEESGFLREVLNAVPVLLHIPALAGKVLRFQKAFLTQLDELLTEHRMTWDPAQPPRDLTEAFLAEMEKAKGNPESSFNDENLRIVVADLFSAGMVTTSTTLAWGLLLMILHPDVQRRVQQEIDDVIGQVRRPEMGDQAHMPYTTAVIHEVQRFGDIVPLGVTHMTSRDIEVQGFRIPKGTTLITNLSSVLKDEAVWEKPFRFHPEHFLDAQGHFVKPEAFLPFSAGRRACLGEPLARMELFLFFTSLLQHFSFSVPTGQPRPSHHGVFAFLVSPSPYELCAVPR

Cytochrome P450 3A4 [28] = biological target: T2, Cytochrome P450 3A4 (Homo sapiens, UniProt P08684); assay: Inhibition of CYP3A4 (unknown origin) using midazolam as substrate; type: ADME
T2 sequence (P08684 whole entry): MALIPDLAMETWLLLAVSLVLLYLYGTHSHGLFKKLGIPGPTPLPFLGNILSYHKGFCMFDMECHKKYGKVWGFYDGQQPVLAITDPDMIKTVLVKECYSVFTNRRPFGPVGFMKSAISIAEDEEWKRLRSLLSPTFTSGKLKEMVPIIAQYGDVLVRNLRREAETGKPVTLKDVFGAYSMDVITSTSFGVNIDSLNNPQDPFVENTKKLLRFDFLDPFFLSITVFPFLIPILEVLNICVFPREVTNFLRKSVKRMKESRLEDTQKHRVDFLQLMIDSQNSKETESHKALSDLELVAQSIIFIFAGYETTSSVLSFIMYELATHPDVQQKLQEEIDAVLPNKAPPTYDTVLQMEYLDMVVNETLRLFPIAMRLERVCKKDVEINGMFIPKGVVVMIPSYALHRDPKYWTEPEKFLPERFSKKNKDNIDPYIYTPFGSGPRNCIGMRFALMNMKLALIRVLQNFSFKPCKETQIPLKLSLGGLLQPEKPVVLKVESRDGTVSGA

Cytochrome P450 3A4 [29] = biological target: T2, Cytochrome P450 3A4; assay: Inhibition of CYP3A4 (unknown origin) using testosterone as substrate; type: ADME
in vitro [30] = conditions: human, HOS-CD4-CCR5 cells
Description: Therapeutic index, ratio of CC50 for human HOS-CD4-CCR5 cells to EC50 for antiviral activity against HIV-1 Ba-L

in vitro [31] = conditions: human, PM1 cells
Description: Therapeutic index, ratio of CC50 for human PM1 cells to EC50 for antiviral activity against HIV-1 Ba-L

in vitro [32] = conditions: human, PM1 cells; remark: listed apart in the source
Description: Therapeutic index, ratio of CC50 for human PM1 cells to EC50 for antiviral activity against HIV-1 YU-2

in vitro [33] = conditions: human, PM1 cells; remark: listed apart in the source
Description: Therapeutic index, ratio of CC50 for human PM1 cells to EC50 for antiviral activity against HIV-1 SF162

in vitro [34] = conditions: human, PBMC
Description: Therapeutic index, ratio of CC50 for human PBMC to EC50 for antiviral activity against HIV-1 KM018 clinical isolate

in vitro [35] = conditions: human, PBMC; remark: listed apart in the source
Description: Therapeutic index, ratio of CC50 for human PBMC to EC50 for antiviral activity against HIV-1 KIZ001 clinical isolate

in vitro [36] = conditions: human, PBMC; remark: listed apart in the source
Description: Therapeutic index, ratio of CC50 for human PBMC to EC50 for antiviral activity against HIV-1 KIZ006 clinical isolate

COC(=O)C1CCC(C(=O)N[C@@H](CCN2[C@@H]3CC[C@H]2C[C@H](n2c(C)nnc2C(C)C)C3)c2cccs2)CC1 (stereo partly specified)
IC50 [1]: 11.8 nM
CC50 at 48 h [2]: > 200000 nM
EC50 [3]: 9 nM
selectivity ratio (in vitro [4]): > 22200

Cc1nnc(C(C)C)n1[C@H]1C[C@H]2CC[C@@H](C1)N2CC[C@H](NC(=O)C1CCCCC1)c1ccc(C#N)s1
IC50 [1]: > 10000 nM
EC50 [5]: > 200000 nM
CC50 at 48 h [2]: > 200000 nM

CNS(=O)(=O)c1cccc(C(=O)N[C@@H](CCN2[C@@H]3CC[C@H]2C[C@H](n2c(C)nnc2C(C)C)C3)c2cccs2)c1
IC50 [1]: 31.9 nM
EC50 [5]: 4630 nM
CC50 at 48 h [2]: > 200000 nM
selectivity ratio (in vitro [4]): > 43.2

Cc1nnc(C(C)C)n1[C@@H]1C[C@H]2CC[C@@H](C1)N2CC[C@H](NC(=O)C1CCCCC1)c1ccc(F)s1
IC50 [1]: 9.33 nM
CC50 at 48 h [2]: > 200000 nM
EC50 [6]: 2660 nM
selectivity ratio (in vitro [4]): > 75.2

CC(=O)N[C@@H](CCN1C2CCC1CC(n1c(C)nc3c1CCN(C(=O)C(C)C)C3)C2)c1cccc(F)c1 (stereo partly specified)
IC50 [1]: 18.9 nM
EC50 [7]: 2.3 nM

Cc1csc([C@H](CCN2[C@@H]3CC[C@H]2C[C@H](n2c(C)nnc2C(C)C)C3)NC(=O)C2CCN(S(C)(=O)=O)CC2)c1
IC50 [1]: 21.5 nM
CC50 at 48 h [2]: > 200000 nM
EC50 [3]: 19 nM
selectivity ratio (in vitro [4]): > 10500

Cc1ccc([C@H](CCN2[C@@H]3CC[C@H]2C[C@H](n2c(C)nnc2C(C)C)C3)NC(=O)C2CCN(S(C)(=O)=O)CC2)s1
IC50 [1]: 7.99 nM
EC50 [5]: 4540 nM
CC50 at 48 h [2]: > 200000 nM
selectivity ratio (in vitro [4]): > 44

Cc1ccc([C@H](CCN2[C@@H]3CC[C@H]2C[C@H](n2c(C)nnc2C(C)C)C3)NC(=O)CC#N)s1
IC50 [1]: 72.7 nM
EC50 [5]: > 50000 nM
CC50 at 48 h [2]: > 200000 nM

Cc1ccc([C@H](CCN2[C@@H]3CC[C@H]2C[C@H](n2c(C)nnc2C(C)C)C3)NC(=O)Cn2cnnn2)s1
IC50 [1]: 45.1 nM
EC50 [5]: > 50000 nM
CC50 at 48 h [2]: > 200000 nM

Cc1nc2c(n1[C@@H]1C[C@H]3CC[C@@H](C1)N3CC[C@H](NC(=O)C1CCC(F)(F)CC1)c1ccsc1)CCN(C(=O)C(C)C)C2
IC50 [1]: 8.34 nM
EC50 [5]: 11 nM
CC50 at 48 h [2]: > 200000 nM
CC50 at 48 h [8]: > 200000 nM
CC50 at 48 h [9]: > 200000 nM
CC50 at 48 h [10]: 81700 nM
EC50 [6]: 16 nM
EC50 [3]: 8.73 nM
EC50 [11]: 1.56 nM
EC50 [12]: 0.5 nM
EC50 [13]: > 1000 nM
EC50 [14]: 32 nM
EC50 [15]: 7.82 nM
EC50 [16]: 12.6 nM
EC50 [7]: 4.34 nM
Cmax [17]: 49.5 ng/mL
Tmax [18]: 2 h
half-life [19]: 10.3 h
AUC(0-t) at 24 h [20]: 283 ng·h/mL
AUC(0-inf) [21]: 283 ng·h/mL
MRT [22]: 13.2 h
bioavailability [23]: 15.7%
t1/2 [24]: 1.6 h
AUC(0-t) at 24 h [25]: 298 ng·h/mL
AUC(0-inf) [26]: 283 ng·h/mL
MRT [27]: 13.2 h
IC50 (Cytochrome P450 1A2): > 25000 nM
IC50 (Cytochrome P450 2C9): > 25000 nM
IC50 (Cytochrome P450 2C19): > 25000 nM
IC50 (Cytochrome P450 2D6): > 25000 nM
IC50 (Cytochrome P450 3A4 [28]): > 25000 nM
IC50 (Cytochrome P450 3A4 [29]): > 25000 nM
selectivity ratio (in vitro [4]): > 18200
selectivity ratio (in vitro [30]): > 12800
selectivity ratio (in vitro [31]): > 40000
selectivity ratio (in vitro [32]): > 22900
selectivity ratio (in vitro [33]): > 12500
selectivity ratio (in vitro [34]): 2550
selectivity ratio (in vitro [35]): 10400
selectivity ratio (in vitro [36]): 6480

Cc1nnc(C(C)C)n1[C@H]1C[C@H]2CC[C@@H](C1)N2CC[C@H](NC(=O)C1CCC(F)(F)CC1)c1ccccc1 [MARAVIROC]
EC50 [5]: 15 nM
EC50 [6]: 19.2 nM
EC50 [3]: 2.96 nM
EC50 [11]: 1.04 nM
EC50 [12]: 0.34 nM
EC50 [13]: > 1000 nM
EC50 [14]: 10.2 nM
EC50 [15]: 14.9 nM
EC50 [16]: 92 nM
EC50 [7]: 2.18 nM
